Laboratory results taken from patent publication US20250282871A1, “PHARMACEUTICAL COMBINATION AND USE THEREOF” (TIANJIN LIPOGEN TECHNOLOGY CO., LTD, priority 2021, published 2025).

How the values were obtained:
[1] = test system: colorectal carcinoma MC38; experiment: Example 7.2.1: MC38 subcutaneous xenograft, marketed PD-1 inhibitors and 2′,3′-cGAMP; format: in vivo, mouse; settings: intratumor injection; PD-1 antibody 10 mg/kg, 2′,3′-cGAMP 1 mg/kg; every other day, 3 times
Description: (§1) Tumor cells were cultured and passaged, cells were collected at the logarithmic phase, and formulated into a concentration of (1.0×10^7) per milliliter of cell suspension with 0.1 ml (with a cell number of 1.0×10^6) being injected into the right flank of the mice, the tumor grew to a diameter of about 5 mm within about 10 days, and the model was successfully established, they were randomly divided into 8 groups with 8 mice per group.
(§2) Trend of changes in body weight and tumor volume of mice, survival rate of mice, and inhibitory rate of anatomical tumor weight.
(§3) Drug interaction coefficient: CDI(CI)=AB/A*B. AB is the ratio of the combination group of two drugs to the control group, as calculated based on the anatomical tumor weight. A or B is the ratio of single drug group to control group.
(§4) After successfully establishing a subcutaneous xenograft tumor model of colorectal carcinoma MC38 in mice, they were randomly grouped with 6-8 mice per group and administered once every two days, a total of 3 times.

[2] = test system: colorectal carcinoma MC38; experiment: Example 7.2.3: MC38 subcutaneous xenograft, PD-L1 inhibitor Tecentriq or RB0005 and 2′,3′-cGAMP; format: in vivo, mouse; settings: intratumor injection, 1 mg/kg each, every other day, 3 times
Description: as §1, §2, §4

[3] = test system: colorectal carcinoma MC38; experiment: Example 9: MC38 xenograft, 2′,3′-cGAMP administered firstly, RB0005 after 48 hours; format: in vivo, mouse; settings: 2′,3′-cGAMP 1 mg/kg i.t. Day 1, 3, 5; RB0005 1 mg/kg i.p. Day 3, 5, 7
Description: as §1, §2, §3
(§5) After successfully establishing a humanized PD-1 subcutaneous xenograft tumor model of colorectal carcinoma MC38 in mice, they were randomly grouped with 6-8 mice per group and administered once every two days, a total of 3 times.

breast carcinoma 4T1 = experiment: Example 11: humanized CD274 cell subcutaneous xenograft tumor model of breast carcinoma 4T1 in BALBc mice; format: in vivo; settings: intratumor injection, 1 mg/kg each
Description: as §1, §2, §3
After successfully establishing a humanized CD274 cell subcutaneous xenograft tumor model of breast carcinoma 4T1 in BALBc mice, they were randomly grouped with 6-8 mice per group and administered once every two days, a total of 3 times.

[4] = test system: colorectal carcinoma MC38; experiment: Example 2: humanized PD-1 subcutaneous xenograft tumor model of colorectal carcinoma MC38, RB0004 and 2′,3′-cGAMP; format: in vivo, mouse; settings: 2′,3′-cGAMP 3 mg/kg i.t.; RB0004 10 mg/kg i.p.; every other day
Description: as §1, §2
After successfully establishing a humanized PD-1 subcutaneous xenograft tumor model of colorectal carcinoma MC38 in mice, they were randomly grouped with 8 mice per group and administered once every two days.

[5] = test system: colorectal carcinoma MC38; experiment: Example 6: humanized PD-1 subcutaneous xenograft tumor model of colorectal carcinoma MC38, RB0004 and 2′,3′-cGAMP single dosage form; format: in vivo, mouse; settings: intratumor injection; RB0004 10 mg/kg, 2′,3′-cGAMP 1 mg/kg; every other day, 3 times
Description: as §1, §2, §3, §5

[6] = test system: colorectal carcinoma MC38; experiment: Example 3: xenograft tumor model of colorectal carcinoma MC38, RB0005 and different doses of 2′,3′-cGAMP; format: in vivo, mouse; settings: single drug i.t.: RB0005 1 mg/kg; 2′,3′-cGAMP 1, 3.16, 10 mg/kg
Description: as §1, §2
After successfully establishing a subcutaneous xenograft tumor model in mice, they were randomly grouped with 8 mice per group and administered once every two days.

[7] = test system: colorectal carcinoma MC38; experiment: Example 7.2.2: MC38 subcutaneous xenograft, PD-L1 inhibitor Durvalumab and 2′,3′-cGAMP; format: in vivo, mouse; settings: intratumor injection, 1 mg/kg each, every other day, 3 times
Description: as §1, §2, §3, §4

[8] = test system: colorectal carcinoma MC38; experiment: Example 1: subcutaneous xenograft tumor model of colorectal carcinoma MC38 in mice, RB0005 and 2′,3′-cGAMP; format: in vivo, mouse
Description: C57/BL6JNifdc mouse, female, body weight of 17-22 g, aged 6-8 weeks, SPF grade, purchased from Beijing Vital River Laboratory Animal Technology Co., Ltd. [Experimental Animal Quality Certificate No.: SCXK (Beijing) 2016-0006].
as §1, §2, §3
After successfully establishing a subcutaneous xenograft tumor model of colorectal carcinoma MC38 in mice, it was randomly grouped with 6-8 mice per group. The mice were administered once every two days, with a total of three times followed by observation until 15 days.

[9] = test system: colorectal carcinoma MC38; experiment: Example 5: humanized CD274 cell subcutaneous xenograft tumor model of colorectal carcinoma MC38, routes and dosage forms; format: in vivo, mouse; settings: every other day, 3 times
Description: as §1, §2, §3
After successfully establishing a humanized CD274 cell subcutaneous xenograft tumor model of colorectal carcinoma MC38 in mice, they were randomly grouped with 6-8 mice per group and administered once every two days, a total of 3 times.

lung carcinoma LLC-1 = experiment: Example 13: humanized PD-1 subcutaneous xenograft tumor model of lung carcinoma LLC-1; format: in vivo, mouse; settings: intratumor injection; RB0004 10 mg/kg, 2′,3′-cGAMP 0.1 mg/kg; every other day, 3 times
Description: as §1, §3
After successfully establishing a humanized PD-1 subcutaneous xenograft tumor model of lung carcinoma LLC-1 in mice, they were randomly grouped with 6-8 mice per group and administered once every two days, a total of 3 times.

melanoma B16 = experiment: Example 12: humanized PD-1 subcutaneous xenograft tumor model of melanoma B16; format: in vivo, mouse; settings: intratumor injection, RB0004 10 mg/kg, 2′,3′-cGAMP 0.1 mg/kg; for TGI %: day 7
Description: as §1
After successfully establishing a humanized PD-1 subcutaneous xenograft tumor model of melanoma B16 in mice, they were randomly grouped with 6-8 mice per group and administered once every two days, a total of 3 times.

In the case of “Toripalimab: marketed PD-1 monoclonal antibody; G9 of Example 7.2.1, called TERRE in b443 [reference compound]”, the “IRTW % (tumor weight inhibitory rate)” value [1] is reported as 49.7% and the “Tumor Weight” value [1] is reported as 0.92 g.

With `Nc1nc2c(ncn2[C@@H]2O[C@@H]3COP(=O)(O)O[C@H]4[C@@H](O)[C@H](n5cnc6c(N)ncnc65)O[C@@H]4COP(=O)(O)O[C@@H]2[C@@H]3O)c(=O)[nH]1` [2′,3′-cGAMP] the “Tumor Weight” value [1] was 0.98 g, the “Tumor Weight” value [2] was 0.9 g and the “Tumor Weight” value [3] was 1.30 g. For the same compound, the “survival rate at the endpoint of the experiment” value (breast carcinoma 4T1) was 66.7%, the “Tumor Weight” value (breast carcinoma 4T1; every other day, 3 times) was 0.63 g and the “inhibition of tumor growth” value [4] was “can inhibit the growth of tumor”. For the same compound, the “Tumor Weight” value [5] was 0.84 g, the “inhibition of tumor growth” value [6] was “can inhibit the growth of tumor” and the “Tumor Weight” value [7] was 1.74 g. For the same compound, the “inhibition of tumor growth” value ([8]; i.t. 1 mg/kg, anatomical tumor weight vs negative control P<0.01, P<0.001) was “can significantly inhibit the growth of tumor”, the “survival rates of mice at the endpoint of the experiment” value ([8]; intratumor injection, 1 mg/kg each drug, every other day, 3 times, death = tumor volume >2000 mm^3) was 75% and the “Tumor Weight” value ([9]; intraperitoneal injection, 1 mg/kg (each)) was 3.48 g. The “Tumor Weight” value ([9]; intratumor injection, 1 mg/kg each) was 1.84 g, the TGI % (lung carcinoma LLC-1) was 47% and the “Day 7-Tumor volume (mm^3)” value (melanoma B16) was 578.8 mm^3. For the same compound, the TGI % (melanoma B16) was 59.0% and the TGI % (melanoma B16; listed as cGAMP) was 59%.

For Tecentriq: marketed PD-L1 inhibitor, the “IRTW % (tumor weight inhibitory rate)” value [2] was 62.4% and the “Tumor Weight” value [2] was 0.7 g.

In the case of “Durvalumab: marketed PD-L1 inhibitor, anti PD-L1 antibody”, the “IRTW % (tumor weight inhibitory rate)” value [7] is reported as 27.7% and the “Tumor Weight” value [7] is reported as 2.42 g.

“Sintilimab: marketed PD-1 monoclonal antibody [reference compound]” was tested, and the “IRTW % (tumor weight inhibitory rate)” value [1] was 3.9% and the “Tumor Weight” value [1] was 1.47 g.
